Results reported in paper PMC8659031, “Substituted Aryl Benzylamines as Potent and Selective Inhibitors of 17β-Hydroxysteroid Dehydrogenase Type 3” (Molecules, 2021).
Entries after “also recorded” stand apart in the source; their conditions may differ. Where two headings read alike, the source gives them in different places.

Key:
17β-HSD3 = target: T1, 17β-HSD3 (Homo sapiens, UniProt P37058); experiment: Assay for 17β-HSD3 activity (TLC assay) in 293-EBNA cells stably transfected with 17β-HSD3; type: cell-based; settings: for inhibition at 10 µM: 293-EBNA
T1 construct: expressed in transfected cells; host or cells: human 293-EBNA cells, stably transfected
T1 sequence (P37058 1-310): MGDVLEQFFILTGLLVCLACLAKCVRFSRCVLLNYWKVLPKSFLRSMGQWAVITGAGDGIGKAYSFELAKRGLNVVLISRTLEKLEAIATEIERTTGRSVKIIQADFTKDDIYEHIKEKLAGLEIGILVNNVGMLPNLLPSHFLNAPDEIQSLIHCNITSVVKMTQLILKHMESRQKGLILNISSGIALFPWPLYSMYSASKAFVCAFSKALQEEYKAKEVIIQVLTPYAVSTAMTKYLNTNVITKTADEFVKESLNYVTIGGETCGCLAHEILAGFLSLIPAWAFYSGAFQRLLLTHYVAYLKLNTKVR
Description: Human 293-EBNA cells stably transfected with 17β-HSD3 were plated at 50,000 cells/well in 24 well plates in complete growth medium. After 48 h 2–3 nM [^3H]-androstenedione in assay medium (500 mL DMEM medium with 5 mL 100 × L-glutamine and 5 mL 7.5% sodium bicarbonate solution) was added with or without test compound at 1.5 mL/well (triplicate), and the cells incubated at 37 °C. Two hours later 1 mL medium was removed from each well and placed in a 125 × 16 mm glass test tube containing 25 µL of recovery solution (5000 dpm ^14C-testosterone and 25 µg unlabelled testosterone […], and the tubes vortexed at high speed for 2 × 30 s. After the samples had settled into two phases, they were snap-frozen in a dry ice/methanol bath. The upper organic phase was decanted into 75 × 12 mm tubes and evaporated to dryness under an airstream using a sample concentrator (TECHNE) at 40 °C. The samples were resuspended in ether (8 drops, then a further 3), spotted onto ca 60 F254 20 cm × 20 cm TLC plates and separated using a 4:1 v/v dichloromethane: ethyl acetate mobile phase. After drying the plates, the major spots were marked under a UV lamp, cut out and placed in individual scintillation vials containing 0.5 mL methanol. These were then shaken lightly and allowed to stand for 15 min before adding 10 mL of EcoScintA (scintillation fluid) to each tube along with 0.5 mL assay medium and counted in a scintillation spectrometer (Beckman, High Wycombe, Bucks, UK), using a program for duel [^3H/^14C] isotopes. The number of cells/well was then counted using a Coulter10 counter (Beckman). The inhibitory activity of the test compounds was then assessed by calculating the amount of product formed correcting for crossover between isotope counts, recovery, dilution and non-enzymatic degradation fmol/hr/million cells) with and without inhibitor (% inhibition).

[1] = Compound toxicity, MTS/Alamar Blue proliferation assay, PC-3; type: cell-based; settings: human, PC-3 (AR-) prostate cancer cells; PC3 (AR-); read-out: Cytotoxicity IC50 (µM) PC3 (AR-)
Description: (§1) AR+ (LNCaP) and AR- (PC-3) PCa cell lines were used as standard lines to determine the cytotoxicity of HSD3 inhibitor compounds. Toxicity was assessed over 96 h in 96 well plates using the standard MTS/Alamar Blue proliferation assay and over longer durations by cell counting methodologies.

[2] = Compound toxicity, MTS/Alamar Blue proliferation assay, LNCaP; type: cell-based; settings: human, LNCaP (AR+) prostate cancer cells; read-out: Cytotoxicity IC50 (µM) LNCaP (AR+)
Description: as §1

[3] = 10 μM, TLC assay, mean of at least two measurements, typically SD ±5%
[4] = TLC assay, 293-EBNA[HSD3] cells, read-out: IC50 (17β-HSD3)

Row | inhibition at 10 µM (17β-HSD3; [3]) | melting point | 17β-HSD3 inhibitory activity in words (17β-HSD3) | Molecule | also measured
1 | 60 to 70% | 178 to 180 °C | – | CC(=O)Nc1ccccc1CNc1cc(F)ccc1Oc1ccc(Cl)cc1 [Compound 3, N-(2-([2-(4-Chloro-phenoxy)-5′-fluoro-phenylamino]-methyl)-phenyl)-acetamide] | –
2 | 20 to 60% | – | – | CCNc1ccccc1C(C)Nc1ccccc1Oc1ccc(Cl)cc1 (stereo not shown) [Compound 25, N-(2–1-[2-(4-Chloro-phenoxy)-phenylamino]-ethyl-phenyl)-ethylamine] | –
3 | < 20% | – | inactive | CC(=O)Nc1ccccc1CN(C)c1ccccc1Oc1ccc(Cl)cc1 [Compound 16, N-[2-(([2-(4-Chloro-phenoxy)-phenyl]-methyl-amino)-methyl)-phenyl]-acetamide] | –
4 | 60 to 70% | 138 to 140 °C | – | CC(=O)Nc1ccc(C)cc1CNc1ccccc1Oc1ccc(Cl)cc1 [Compound 8, N-(2-[2-(4-Chloro-phenoxy)-phenylamino]-methyl-4-methyl-phenyl)-acetamide] | –
5 | – | – | – | CC(=O)Nc1ccccc1C(C)Nc1ccccc1Oc1ccc(Cl)cc1 (stereo not shown) [Compound 29, N-(2-(1-[2-(4-Chloro-phenoxy)-phenylamino]-ethyl)-phenyl)-acetamide] | IC50 (17β-HSD3; [4]): 76 nM; IC50 at 96 h [1]: 18.3 µM; IC50 at 96 h [2]: 14.6 µM
6 | < 20% | – | inactive | CC(=O)Nc1ccc(CNc2ccccc2Oc2ccc(Cl)cc2Cl)cc1 [Compound 19, N-(4-([2-(2,4-Dichloro-phenoxy)-phenylamino]-methyl)-phenyl)-acetamide] | –
7 | 97% | – | – | CC(=O)Nc1ccc(Cl)cc1CNc1ccccc1Oc1ccc(Cl)cc1 [Compound 9, N-(4-Chloro-2-[2-(4-chloro-phenoxy)-phenylamino]-methyl-phenyl)-acetamide] | IC50 (17β-HSD3; [4]): 1900 nM
8 | – | 121 to 123 °C | good activity | CC(=O)Nc1ccc(Cl)cc1CNc1ccccc1Oc1ccc(OC(F)(F)F)cc1 [Compound 11, N-(4-Chloro-2-[2-(4-trifluoromethoxy-phenoxy)-phenylamino]-methyl-phenyl)-acetamide] | –
9 | < 20% | – | – | CC(=O)Nc1ccccc1C(Cc1ccccc1)Nc1ccccc1Oc1ccc(Cl)cc1 (stereo not shown) [Compound 27, N-(2-(1-[2-(4-Chloro-phenoxy)-phenylamino]-2-phenyl-ethyl)-phenyl)-acetamide] | –
10 | 53% | 187 to 190 °C | – | CC(=O)Nc1cccc(CNc2ccccc2Oc2ccc(Cl)cc2)c1 [Compound 20, N-(3-[2-(4-Chloro-phenoxy)-phenylamino]-methyl-phenyl)-acetamide] | –
11 | 60 to 70% | 98 to 100 °C | – | CC(=O)Nc1ccccc1CNc1ccccc1Oc1ccc(OC(F)(F)F)cc1 [Compound 2, N-(2-([2-(4-Trifluoromethoxy-phenoxy)-phenylamino]-methyl)-phenyl)-acetamide] | –
12 | 97% | – | – | CC(=O)N1CCC(C(=O)Nc2cccc(CNc3ccccc3Oc3ccc(Cl)cc3)c2)CC1 [Compound 24, 1-Acetyl-piperidine-4-carboxylic acid (3-[2-(4-chloro-phenoxy)-phenylamino]-methyl-phenyl)-amide] | IC50 (17β-HSD3; [4]): 1100 nM
13 | – | 139 to 141 °C | active | C=CC[C@H](Nc1ccccc1Oc1ccc(Cl)cc1)c1ccccc1NC(C)=O [Compound 32, S-(+)-N-(2-(1-[2-(4-Chloro-phenoxy)-phenylamino]-but-2-enyl)-phenyl)-acetamide] | IC50 (17β-HSD3; [4]): 370 nM
14 | 86% | 154 to 156 °C | good activity; also recorded: active | CC(=O)Nc1cc2c(cc1CNc1ccccc1Oc1ccc(Cl)cc1)OCO2 [Compound 4, N-(6-[2-(4-Chloro-phenoxy)-phenylamino]-methyl-benzo[1,3]dioxol-5-yl)-acetamide] | IC50 (17β-HSD3; [4]): 450 nM
15 | < 20% | 153 to 155 °C | – | CC(=O)Nc1c(CNc2ccccc2Oc2ccc(Cl)cc2)ccc2ccccc12 [Compound 7, N-(2-[2-(4-Chloro-phenoxy)-phenylamino]-methyl-naphthalen-1-yl)-acetamide] | –
16 | 29% | 137 to 139 °C | – | CC(=O)Nc1ccc(CNc2ccccc2Oc2ccc(Cl)cc2)cc1 [Compound 18, N-(4-([2-(4-Chloro-phenoxy)-phenylamino]-methyl)-phenyl)-acetamide] | –
17 | – | – | – | 1-[4-(2-[2-(4-Chloro-phenoxy)-phenylamino]-methyl-phenylamino)-piperidin-1-yl]-ethanone [Compound 21] | % Inhibition at 10 μM (17β-HSD3) (17β-HSD3; [3]): 36%
18 | < 20% | 135 to 137 °C | – | CC(=O)Nc1ccc(Cl)cc1CNc1ccccc1Oc1ccc(Cl)cc1Cl [Compound 10, N-(4-Chloro-2-[2-(2,4-dichloro-phenoxy)-phenylamino]-methyl-phenyl)-acetamide] | –
19 | 55% | – | – | CC(=O)N1CCC(Nc2ccccc2CN(C(C)=O)c2ccccc2Oc2ccc(Cl)cc2)CC1 [Compound 22, N-[2-(1-Acetyl-piperidin-4-ylamino)-benzyl]-N-[2-(4-chloro-phenoxy)-phenyl]-acetamide] | –
20 | 60 to 70% | – | weakly active | CC(=O)N(C)c1ccccc1CN(C)c1ccccc1Oc1ccc(Cl)cc1 [Compound 15, N-[2-(([2-(4-Chloro-phenoxy)-phenyl]-methyl-amino)-methyl)-phenyl]-N-methyl-acetamide] | –
21 | – | – | – | CC(=O)N1Cc2ccccc2CSc2ccccc21 [BMS Dibenzazocine] | IC50 (17β-HSD3; Table 11, read-out: HSD3 Activity (IC50 nM)): 8.6 nM; IC50 at 96 h [1]: > 50 µM; IC50 at 96 h [2]: 19.4 µM
22 | < 20% | – | inactive | CC(=O)Nc1ccccc1CN(C(C)=O)c1ccccc1Oc1ccc(Cl)cc1 [Compound 17, N-(2-Acetylamino-benzyl)-N-[2-(4-chloro-phenoxy)-phenyl]-acetamide] | –
23 | – | – | – | CCCC(Nc1ccccc1Oc1ccc(Cl)cc1)c1ccccc1NC(C)=O (stereo not shown) [Compound 28, N-(2-(1-[2-(4-Chloro-phenoxy)-phenylamino]-butyl)-phenyl)-acetamide] | IC50 (17β-HSD3; [4]): 370 nM
24 | – | – | – | CC(=O)N(C)c1ccccc1CNc1ccccc1Oc1ccc(Cl)cc1 [Compound 14, N-(2-([2-(4-Chloro-phenoxy)-phenylamino]-methyl)-phenyl)-N-methyl-acetamide] | IC50 (17β-HSD3; [4]): 460 nM
25 | 20 to 60% | – | – | C=CCC(Nc1ccccc1Oc1ccc(Cl)cc1)c1ccccc1NC(C)=O (stereo not shown) [Compound 26] | IC50 (17β-HSD3; [4]): 520 nM

Row | Molecule | inhibition at 10 µM (17β-HSD3; [3]) | melting point | 17β-HSD3 inhibitory activity in words (17β-HSD3) | also measured
26 | COc1cc(CNc2ccccc2Oc2ccc(Cl)cc2)c(NC(C)=O)cc1OC [Compound 5, N-(2-[2-(4-Chloro-phenoxy)-phenylamino]-methyl-4,5-dimethoxy-phenyl)-acetamide] | < 20% | 117 to 118 °C | activity was lost; also recorded: inactive | –
27 | COc1cc(CNc2ccccc2Oc2ccc(Cl)cc2Cl)c(NC(C)=O)cc1OC [Compound 6, N-(2-([2-(2,4-Dichloro-phenoxy)-phenylamino]-methyl)-4,5-dimethoxy-phenyl)-acetamide] | < 20% | 128 to 131 °C | activity was lost; also recorded: inactive | –
